In PMC9585581, “Developing Photoaffinity Probes for Dopamine Receptor D2 to Determine Targets of Parkinson’s Disease Drugs” (ACS Chemical Neuroscience, 2022):
“Also recorded” adds a separate entry of the source.

Legend:
[1] = tested on: rat whole brain proteins; assay: Rat whole brain photo-cross-linking, biotin-streptavidin pulldown and LC/MS proteomics (interactome); format: binding, Sprague Dawley rat; conditions: probe 50 μM; rat whole brain minus olfactory bulb
Source text: Whole brain assays were designed to assay the binding partners of 5 and 7, as well as a control for the inherent binding of the benzophenone cross-linker using molecule 16 (Figure 7). […] We chose this methodology to maximize the amount of unique hits we were likely to record. A drawback to this assay, however, is that GPCRs need highly specific extraction/purification conditions to be detected by LC-MS (or other protein detection methodologies) at the end point. Thus, by biasing our assay toward a “wide lens” to record a picture of diverse interactions, we missed the specific focus necessary to observe DRD2 and structurally related GPCRs, and we were unable to directly observe DRD2 in the proteomic analysis.
To perform the assay, the whole brain minus the olfactory bulb from an adult female Sprague Dawley rat was homogenized and treated with probes or linker control 16 at a 50 μM concentration and photo-cross-linked. A streptavidin resin was used to deplete endogenous biotin and then clicked with azido biotin, followed by streptavidin pulldown. The streptavidin beads were processed by tryptic digest, followed by LC/MS proteomic analysis. […]
To prepare the homogenate, adult rat brain tissue was microdissected and the olfactory bulb was discarded and sliced into 1 mm pieces. […] The total protein concentration was determined via BCA assay (Pierce) and adjusted to 6 mg/mL. […]

[2] = biological target: T1, human DRD2, long form (Homo sapiens, UniProt P14416); assay: Intracellular Ca2+ mobilization assay (HEK293T stably expressing DRD2, chimeric G-protein Gqi5, calcium dye, confocal microscopy); format: cell-based; conditions: for EC50: Ca assay, HEK293T stably expressing human DRD2 and chimeric G-protein, Hill slope of 1.0; for activity in calcium flux assay (in words): calcium flux bioactivity
T1 construct: expressed in transfected cells; Gqi5 chimera transiently transfected
T1 sequence (P14416 whole entry): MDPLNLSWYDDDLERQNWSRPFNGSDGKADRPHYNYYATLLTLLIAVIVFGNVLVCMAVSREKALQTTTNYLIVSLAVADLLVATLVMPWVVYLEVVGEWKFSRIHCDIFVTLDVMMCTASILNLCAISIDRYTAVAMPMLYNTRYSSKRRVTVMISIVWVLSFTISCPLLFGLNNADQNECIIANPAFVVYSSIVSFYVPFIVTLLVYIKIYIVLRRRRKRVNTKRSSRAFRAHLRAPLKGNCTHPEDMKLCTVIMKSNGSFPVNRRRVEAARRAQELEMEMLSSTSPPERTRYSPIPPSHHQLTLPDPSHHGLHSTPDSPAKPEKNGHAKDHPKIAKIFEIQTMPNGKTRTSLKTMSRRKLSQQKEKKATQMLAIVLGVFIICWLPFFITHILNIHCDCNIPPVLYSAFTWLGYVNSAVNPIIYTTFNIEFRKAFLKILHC
Description: Intracellular calcium measurement was used to determine G-protein-mediated signaling by DRD2. Because DRD2 is linked to the G-protein subtype Gi, agonist binding inhibits adenyl cyclase activity.[42] To mitigate this effect, we created an HEK293T cell line stably expressing human DRD2, long form, and a chimeric G-protein, Gqi, which alters the DRD2 receptor’s G-protein coupling so that signaling can occur through Gq, resulting in an intracellular calcium flux.[43] The assay is performed by first loading the cell line with a calcium-sensing dye. Binding of the ligand to the receptor results in an influx of calcium to the cytoplasm, which can be characterized in real time by monitoring the increase in dye fluorescence with confocal microscopy.
Figure 2 Intracellular calcium flux assay. HEK293T cell line stably expressing constructs for human DRD2 and a chimeric G-protein is loaded with calcium-sensing dye, […]. After dosing the probe, confocal microscopy is used to determine the calcium flux in the cell by change in dye fluorescence.
A stable HEK293T-derived cell line-expressing DRD2-Strep Tag II fusion was maintained in DMEM supplemented with 10% FBS, 100 U/mL penicillin, and 100 μg/mL streptomycin in a humidified atmosphere at 37 °C in 5% CO2. On day 1, cells were plated at a density of 4 × 10^4 cells/cm^2 in a poly-D-lysine-coated 18-well chambered coverslip (Ibidi). The following day (day 2), cells were transfected with a 10× solution of 3:1 mixture of Gqi5/Optifect Transfection Reagent (Thermo) in unsupplemented DMEM. On day 3, the transfection media was removed and calcium-sensitive dye loading was performed following the protocol of the Fluo-4 Direct Calcium Assay Kit (Invitrogen). 5× drug stimulation solutions were prepared in filter-sterilized HBSS. Once Fluo-4 loading was complete, a time series acquisition at a rate of 1 fps was recorded using a Zeiss LSM 980 with Airyscan 2. Basal fluorescence was recorded for 20 s, followed by the addition of drug solution to a 1× final concentration and acquisition for an additional 40 s. Results in the form of fold fluorescence increase over basal were averaged over 50 cells in ImageJ (NIH), and GraphPad Prism was used for the analysis of data.

| EC50 [2] | difference in potency of probe vs parent compound ([2]; calcium assay, 5 vs ropinirole) | activity in calcium flux assay (in words) [2] | SMILES | protein hits of the pulldown (in words) [1] |
| --- | --- | --- | --- | --- |
| 1670 nM | ~10 × | low micromolar potency | C#CCOc1ccc(C(=O)c2ccc(CNCCc3cccc4c3CC(=O)N4)cc2)cc1 [Compound 5, 4-(2-((4-(4-(Prop-2-yn-1-yloxy)benzoyl)benzyl)amino)ethyl)indolin-2-one] | muscarinic acetylcholine receptor M1 and CB1 cannabinoid receptor-interacting protein 1; also recorded: bound other protein networks including the retrograde endocannabinoid signaling pathway, neuronal nitric oxide synthase, GABA receptor components, and muscarinic acetylcholine receptor M1 |
| 2190 nM |  | low micromolar potency | C#CCOc1ccc(C(=O)c2ccc(CN[C@H]3CCc4nc(N)sc4C3)cc2)cc1 [Compound 7, (S)-(4-(((2-Amino-4,5,6,7-tetrahydrobenzo[d]thiazol-6-yl)amino)methyl)phenyl)(4-(prop-2-yn-1-yloxy)phenyl)methanone] | bound other protein networks including the retrograde endocannabinoid signaling pathway, neuronal nitric oxide synthase, GABA receptor components, and muscarinic acetylcholine receptor M1 |
